Test results taken from PMC11929900 (Communications Chemistry, 2025).

Biological target: h-cGAS (Homo sapiens, UniProt Q8N884)
Assay: cGAS Kinase-Glo inhibition biochemical assay

Sequence of h-cGAS (Q8N884 whole entry): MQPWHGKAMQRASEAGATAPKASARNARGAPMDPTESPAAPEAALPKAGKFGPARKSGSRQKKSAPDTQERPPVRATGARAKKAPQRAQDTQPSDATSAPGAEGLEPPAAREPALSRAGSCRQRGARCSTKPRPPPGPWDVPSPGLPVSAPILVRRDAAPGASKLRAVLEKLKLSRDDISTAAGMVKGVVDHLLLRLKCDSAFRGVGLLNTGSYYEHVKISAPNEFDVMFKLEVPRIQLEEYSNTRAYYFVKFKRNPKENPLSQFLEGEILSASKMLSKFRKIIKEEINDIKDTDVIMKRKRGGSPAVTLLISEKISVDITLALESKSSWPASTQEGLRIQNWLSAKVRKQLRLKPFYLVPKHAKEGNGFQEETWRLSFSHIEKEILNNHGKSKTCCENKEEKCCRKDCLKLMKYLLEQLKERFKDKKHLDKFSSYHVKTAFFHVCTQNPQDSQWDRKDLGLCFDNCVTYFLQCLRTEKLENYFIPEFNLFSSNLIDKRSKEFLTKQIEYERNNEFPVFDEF

- IC50: > 10 µM
SMILES: COCC(=O)N1CCc2[nH]c3c(Cl)c(Cl)ccc3c2C1(C)C [Compound 3, 1-(6,7-dichloro-1,1-dimethyl-1,3,4,5-tetrahydro-2H-pyrido[4,3-b]indol-2-yl)-2-methoxyethan-1-one]
